Reference: patent US20240252508A1, “Novel glucose uptake inhibitors for use in the treatment of cancer” (NOVELYEAST BV, priority 2021, published 2024)

Tests used:
tps1Δ cells = experiment: Growth rescue of tps1Δ strain on glucose (growth curves, 2% galactose medium); format: cell-based, S. cerevisiae; conditions: 100 μM compound, 2.5 mM glucose
Procedure, shortened: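 tps1Δ yeast pregrown in Complete Synthetic medium with 2% galactose, washed, resuspended to OD 0.1; compounds added 10 min before glucose. Growth followed as OD595 every 30 min at 30 °C in at least three technical replicates.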

[1] = test system: A549 lung adenocarcinoma cells; experiment: A549 cell proliferation / growth inhibition; format: cell-based, human; conditions: for Selected from primary screen for growth inhibition of A549 cells at 50 μM: 50 μM compound, 1 mM glucose; for Selected for having an IC50 ratio (10 mM glucose: 1 mM glucose) of A549 growth higher than WBC-A: IC50 on 10 mM vs 1 mM glucose, compared with WBC-A
Procedure, shortened: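 A549 growth screened in RPMI with 1 mM glucose, compounds at 50 μM; cell number from counts of Hoechst-stained nuclei after 3 days. Growth curves also followed by IncuCyte phase-contrast confluency over 3–5 days (1000–1500 cells/well), DMSO ≤0.1%, ≥4 technical repeats.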

## OCCSc1nc(-c2cccs2)nc2scc(-c3ccccc3)c12 [23C]
tps1Δ cells
  Rescue of the tps1Δ strain on 2.5 mM glucose at 100 μM: No
[1]
  Selected from primary screen for growth inhibition of A549 cells at 50 μM: Yes
  Selected for having an IC50 ratio (10 mM glucose: 1 mM glucose) of A549 growth higher than WBC-A: Lower IC50 ratio

## Cc1sc2ncnc(Sc3nnc(Cc4cccs4)n3C)c2c1C [12A]
tps1Δ cells
  Rescue of the tps1Δ strain on 2.5 mM glucose at 100 μM: No
[1]
  Selected from primary screen for growth inhibition of A549 cells at 50 μM: No

## Cc1nc(NC2CCN(CC(N)=O)CC2)c2c(-c3cccs3)csc2n1 [48B]
tps1Δ cells
  Rescue of the tps1Δ strain on 2.5 mM glucose at 100 μM: No
[1]
  Selected from primary screen for growth inhibition of A549 cells at 50 μM: Yes
  Selected for having an IC50 ratio (10 mM glucose: 1 mM glucose) of A549 growth higher than WBC-A: Lower IC50 ratio

## Cc1nc(Sc2nnc(C(F)(F)F)n2C)c2c(-c3cccs3)csc2n1 [54C]
tps1Δ cells
  Rescue of the tps1Δ strain on 2.5 mM glucose at 100 μM: Yes
[1]
  Selected from primary screen for growth inhibition of A549 cells at 50 μM: Yes
  Selected for having an IC50 ratio (10 mM glucose: 1 mM glucose) of A549 growth higher than WBC-A: Lower IC50 ratio

## Cc1nc(Sc2nnnn2Cc2ccco2)c2c(-c3cccs3)csc2n1 [35C]
tps1Δ cells
  Rescue of the tps1Δ strain on 2.5 mM glucose at 100 μM: No
[1]
  Selected from primary screen for growth inhibition of A549 cells at 50 μM: Yes
  Selected for having an IC50 ratio (10 mM glucose: 1 mM glucose) of A549 growth higher than WBC-A: Lower IC50 ratio

## Cc1nc(SCC(=O)OC(C)(C)C)c2c3c(sc2n1)CCCC3 [31C]
tps1Δ cells
  Rescue of the tps1Δ strain on 2.5 mM glucose at 100 μM: No
[1]
  Selected from primary screen for growth inhibition of A549 cells at 50 μM: No

## COC(=O)CSc1ncnc2scc(-c3ccccc3)c12 [86C]
tps1Δ cells
  Rescue of the tps1Δ strain on 2.5 mM glucose at 100 μM: No
[1]
  Selected from primary screen for growth inhibition of A549 cells at 50 μM: No

## Cc1nc(SCC(=O)N2CCOCC2)c2c(C)c(C)sc2n1 [47C]
tps1Δ cells
  Rescue of the tps1Δ strain on 2.5 mM glucose at 100 μM: No
[1]
  Selected from primary screen for growth inhibition of A549 cells at 50 μM: No

## CSc1nc(SCCO)c2c3c(sc2n1)COC(C)(C)C3 [81C]
tps1Δ cells
  Rescue of the tps1Δ strain on 2.5 mM glucose at 100 μM: No
[1]
  Selected from primary screen for growth inhibition of A549 cells at 50 μM: Yes
  Selected for having an IC50 ratio (10 mM glucose: 1 mM glucose) of A549 growth higher than WBC-A: Lower IC50 ratio

## Cc1nc(SCC(=O)c2c(N)n(C)c(=O)n(C)c2=O)c2c(-c3cccs3)csc2n1 [1B]
tps1Δ cells
  Rescue of the tps1Δ strain on 2.5 mM glucose at 100 μM: No
[1]
  Selected from primary screen for growth inhibition of A549 cells at 50 μM: No

## CCOC(=O)CNC(=O)CSc1nnc(C)c2cnn(-c3ccccc3)c12 [73C]
tps1Δ cells
  Rescue of the tps1Δ strain on 2.5 mM glucose at 100 μM: No
[1]
  Selected from primary screen for growth inhibition of A549 cells at 50 μM: No

## OCCSc1ncnc2sc(-c3ccccc3)cc12 [30C]
tps1Δ cells
  Rescue of the tps1Δ strain on 2.5 mM glucose at 100 μM: No
[1]
  Selected from primary screen for growth inhibition of A549 cells at 50 μM: No

## Cc1nc(SCCO)c2c(C)c(C)sc2n1 [57C]
tps1Δ cells
  Rescue of the tps1Δ strain on 2.5 mM glucose at 100 μM: No
[1]
  Selected from primary screen for growth inhibition of A549 cells at 50 μM: No

## Cc1nc(SCC(=O)c2ccc3c(c2)NC(=O)CO3)c2c(-c3cccs3)csc2n1 [11C]
tps1Δ cells
  Rescue of the tps1Δ strain on 2.5 mM glucose at 100 μM: Yes
[1]
  Selected from primary screen for growth inhibition of A549 cells at 50 μM: Yes
  Selected for having an IC50 ratio (10 mM glucose: 1 mM glucose) of A549 growth higher than WBC-A: Higher IC50 ratio and confirmed

## Cc1nc(N(C)Cc2nnc3n2CCCCC3)c2c(-c3ccccc3)csc2n1 [33A]
tps1Δ cells
  Rescue of the tps1Δ strain on 2.5 mM glucose at 100 μM: No
[1]
  Selected from primary screen for growth inhibition of A549 cells at 50 μM: No

## Cc1nc(SCCOc2ccc(F)cc2)c2c(-c3cccs3)csc2n1 [32C]
tps1Δ cells
  Rescue of the tps1Δ strain on 2.5 mM glucose at 100 μM: No
[1]
  Selected from primary screen for growth inhibition of A549 cells at 50 μM: No

## Cc1nc(SCCO)c2c3c(sc2n1)CCCC3 [22C]
tps1Δ cells
  Rescue of the tps1Δ strain on 2.5 mM glucose at 100 μM: No
[1]
  Selected from primary screen for growth inhibition of A549 cells at 50 μM: No

## Cc1ccc(-c2csc3ncnc(Sc4nc(C5CCCCC5)n(-c5ccccc5)n4)c23)cc1 [1A]
tps1Δ cells
  Rescue of the tps1Δ strain on 2.5 mM glucose at 100 μM: No
[1]
  Selected from primary screen for growth inhibition of A549 cells at 50 μM: No

## CCn1c(CCC(N)=O)nnc1Sc1nc(C)nc2scc(-c3cccs3)c12 [16C]
tps1Δ cells
  Rescue of the tps1Δ strain on 2.5 mM glucose at 100 μM: Yes
[1]
  Selected from primary screen for growth inhibition of A549 cells at 50 μM: Yes
  Selected for having an IC50 ratio (10 mM glucose: 1 mM glucose) of A549 growth higher than WBC-A: Lower IC50 ratio

## Cc1nc(SCC(=O)Nc2ccccc2C#N)c2c(-c3cccs3)csc2n1 [19B]
tps1Δ cells
  Rescue of the tps1Δ strain on 2.5 mM glucose at 100 μM: No
[1]
  Selected from primary screen for growth inhibition of A549 cells at 50 μM: No

## Cc1nc(SCCN2CCOCC2)c2c(-c3cccs3)csc2n1 [44A]
tps1Δ cells
  Rescue of the tps1Δ strain on 2.5 mM glucose at 100 μM: Yes
[1]
  Selected from primary screen for growth inhibition of A549 cells at 50 μM: Yes
  Selected for having an IC50 ratio (10 mM glucose: 1 mM glucose) of A549 growth higher than WBC-A: Lower IC50 ratio

## Cc1sc2ncnc(Sc3nnc4ccccn34)c2c1C [58A]
tps1Δ cells
  Rescue of the tps1Δ strain on 2.5 mM glucose at 100 μM: No
[1]
  Selected from primary screen for growth inhibition of A549 cells at 50 μM: No

## COC(=O)CN(C)c1nc(C)nc2scc(-c3ccc(OC)c(OC)c3)c12 [67C]
tps1Δ cells
  Rescue of the tps1Δ strain on 2.5 mM glucose at 100 μM: No
[1]
  Selected from primary screen for growth inhibition of A549 cells at 50 μM: Yes
  Selected for having an IC50 ratio (10 mM glucose: 1 mM glucose) of A549 growth higher than WBC-A: Lower IC50 ratio

## Cc1nc(SCCC#N)c2c(-c3cccs3)csc2n1 [15A]
tps1Δ cells
  Rescue of the tps1Δ strain on 2.5 mM glucose at 100 μM: No
[1]
  Selected from primary screen for growth inhibition of A549 cells at 50 μM: No

## Cc1nc(Sc2cccc(C(F)(F)F)c2)c2c(-c3cccs3)csc2n1 [25C]
tps1Δ cells
  Rescue of the tps1Δ strain on 2.5 mM glucose at 100 μM: No
[1]
  Selected from primary screen for growth inhibition of A549 cells at 50 μM: Yes
  Selected for having an IC50 ratio (10 mM glucose: 1 mM glucose) of A549 growth higher than WBC-A: Lower IC50 ratio

## Cc1nc(Sc2nnnn2-c2ccccc2C)c2c(-c3cccs3)csc2n1 [20C]
tps1Δ cells
  Rescue of the tps1Δ strain on 2.5 mM glucose at 100 μM: No
[1]
  Selected from primary screen for growth inhibition of A549 cells at 50 μM: Yes
  Selected for having an IC50 ratio (10 mM glucose: 1 mM glucose) of A549 growth higher than WBC-A: Lower IC50 ratio

## Cc1nc(SCCC(N)=O)c2c(-c3cccs3)csc2n1 [4B]
tps1Δ cells
  Rescue of the tps1Δ strain on 2.5 mM glucose at 100 μM: No
[1]
  Selected from primary screen for growth inhibition of A549 cells at 50 μM: No

## Cc1nc(Sc2nnc3n2CCC(CN=[N+]=[N-])CC3)c2c(-c3cccs3)csc2n1 (stereo not shown) [87C]
tps1Δ cells
  Rescue of the tps1Δ strain on 2.5 mM glucose at 100 μM: Yes
[1]
  Selected from primary screen for growth inhibition of A549 cells at 50 μM: Yes
  Selected for having an IC50 ratio (10 mM glucose: 1 mM glucose) of A549 growth higher than WBC-A: Lower IC50 ratio

## c1nc(Sc2nnc3n2CCCCC3)c2c3c(sc2n1)CCCC3 [65A]
tps1Δ cells
  Rescue of the tps1Δ strain on 2.5 mM glucose at 100 μM: No
[1]
  Selected from primary screen for growth inhibition of A549 cells at 50 μM: No

## Cc1nc(Sc2nnc(C3CC3)n2C2CC2)c2c(-c3cccs3)csc2n1 [58C]
tps1Δ cells
  Rescue of the tps1Δ strain on 2.5 mM glucose at 100 μM: No
[1]
  Selected from primary screen for growth inhibition of A549 cells at 50 μM: No

## Cc1ccc(-c2csc3ncnc(SCC(=O)NCc4ccco4)c23)cc1 [8B]
tps1Δ cells
  Rescue of the tps1Δ strain on 2.5 mM glucose at 100 μM: No
[1]
  Selected from primary screen for growth inhibition of A549 cells at 50 μM: Yes
  Selected for having an IC50 ratio (10 mM glucose: 1 mM glucose) of A549 growth higher than WBC-A: Lower IC50 ratio

## CC(=O)N(c1nnc(Sc2nc(C)nc3scc(-c4cccs4)c23)s1)C1CC1 [39C]
tps1Δ cells
  Rescue of the tps1Δ strain on 2.5 mM glucose at 100 μM: No
[1]
  Selected from primary screen for growth inhibition of A549 cells at 50 μM: No

## CCC(c1nnc(Sc2nc(C)nc3scc(-c4cccs4)c23)n1Cc1ccccc1)N(C)C (stereo not shown) [52A]
tps1Δ cells
  Rescue of the tps1Δ strain on 2.5 mM glucose at 100 μM: No
[1]
  Selected from primary screen for growth inhibition of A549 cells at 50 μM: Yes
  Selected for having an IC50 ratio (10 mM glucose: 1 mM glucose) of A549 growth higher than WBC-A: Lower IC50 ratio

## CCOC(=O)CSc1nnc(C)c2cnn(-c3ccccc3)c12 [74C]
tps1Δ cells
  Rescue of the tps1Δ strain on 2.5 mM glucose at 100 μM: No
[1]
  Selected from primary screen for growth inhibition of A549 cells at 50 μM: No

## Cc1nc(SCC(=O)NC(C)(C#N)C2CC2)c2c(-c3cccs3)csc2n1 (stereo not shown) [18B]
tps1Δ cells
  Rescue of the tps1Δ strain on 2.5 mM glucose at 100 μM: No
[1]
  Selected from primary screen for growth inhibition of A549 cells at 50 μM: Yes
  Selected for having an IC50 ratio (10 mM glucose: 1 mM glucose) of A549 growth higher than WBC-A: Higher IC50 ratio, but false-positive
